Results: patent US20060142321A1, “5-HT7 receptor antagonists” (priority 2004, published 2006)
pIC50: −log10 of the molar value. Counter-ions that a name gives are not always drawn.

Molecular target: T1, Cloned Human Serotonin Receptor, Subtype 7 (h5HT7) (Homo sapiens, UniProt P34969)
T1 construct: purchased PerkinElmer 6120512; host or cells: CHO cells (membranes coated on Basic FlashPlate SMP200)
Test: Radioligand binding assay, [125I]LSD, cloned h5HT7 expressed in CHO cells (Flashplate)
Details: [125I]LSD 0.82 nM, room temperature, 240 minutes, read-out: 5-HT7 IC-50
Method: Biological Assays Radioligand Binding
Radioligand binding assays were performed using the Cloned Human Serotonin Receptor, Subtype 7 (h5HT7), expressed in CHO cells, coated on Flashplate (Basic FlashPlate Cat.: SMP200) from PerkinElmer (Cat.: 6120512). The protocol assay was essentially the recommended protocol in the Technical Data Sheet by PerkinEmer Life and Analytical Sciences. The Mass membrane protein/well was typically 12 μg and the Receptor/well was about 9-10 fmoles. The Flashplate were let equilibrate at room temperature for one hour before the addition of the components of the assay mixture. The binding buffer was: 50 mM Tris-HCl, pH 7.4, containing 10 mM MgCl2, 0.5 mM EDTA and 0.5% BSA. The radioligand was [^125I]LSD at a final concentration of 0.82 nM. Nonspecific binding was determined with 50 μM of Clozapine. The assay volume was 25 μl. TopSeal-A were applied onto Flashplate microplates and they were incubated at room temperature for 240 minutes in darkness. The radioactivity were quantified by liquid scintillation spectrophotometry (Wallac 1450 Microbeta Trilux) with a count delay of 4 minutes prior to counting and a counting time of 30 seconds per well. Competition binding data were analyzed by using the LIGAND program (Munson and Rodbard, LIGAND: A versatile, computerized approach for characterization of ligand-binding systems. Anal. Biochem. 107: 220-239, 1980) and assays were performed in triplicate determinations for each point.

T1 sequence (P34969 whole entry): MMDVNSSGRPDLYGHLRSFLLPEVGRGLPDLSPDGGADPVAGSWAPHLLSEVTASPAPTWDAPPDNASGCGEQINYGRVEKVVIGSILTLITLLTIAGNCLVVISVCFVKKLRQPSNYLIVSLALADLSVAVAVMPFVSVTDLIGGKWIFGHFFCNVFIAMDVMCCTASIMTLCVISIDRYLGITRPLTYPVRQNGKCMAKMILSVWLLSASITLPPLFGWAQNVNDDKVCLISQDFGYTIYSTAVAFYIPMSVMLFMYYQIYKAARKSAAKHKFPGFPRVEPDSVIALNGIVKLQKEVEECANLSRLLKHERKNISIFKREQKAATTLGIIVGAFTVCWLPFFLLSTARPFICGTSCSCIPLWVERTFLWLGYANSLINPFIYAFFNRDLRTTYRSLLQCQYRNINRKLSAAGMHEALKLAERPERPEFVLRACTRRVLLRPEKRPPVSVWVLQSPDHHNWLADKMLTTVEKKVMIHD

pIC50 | SMILES
7.10 | Cc1cc(S(=O)(=O)NCCCCN2CCc3cccc4c3C2CC4)c(C)cc1Cl (stereo not shown) [Compound 7, 4-Chloro-2,5-dimethyl-N-[4-(2,2a,4-5-tetrahydro-1H-3-aza-acenaphthylen-3-yl)-butyl]-benzenesulfonamide hydrochloride]
6.85 | O=S(=O)(NCCCN1CCc2cccc3c2C1CC3)c1cc(Cl)ccc1Cl (stereo not shown) [Compound 15, 2,5-Dichloro-N-[3-(2,2a,4-5-tetrahydro-1H-3-aza-acenaphthylen-3-yl)-propyl]-benzenesulfonamide hydrochloride]
6.81 | COc1cc2c3c(c1OC)CCC3N(CCCNS(=O)(=O)c1cc(Cl)ccc1Cl)CC2 (stereo not shown) [Compound 56, 2,5-Dichloro-N-[3-(7,8-dimethoxy-2,2a,4-5-tetrahydro-1H-3-aza-acenaphthylen-3-yl)-propyl]-benzene sulfonamide hydrochloride]
6.72 | COc1cc2c3c(c1OC)CCC3N(CCCNS(=O)(=O)c1cc(F)c(F)cc1Cl)CC2 (stereo not shown) [Compound 58, 2-Chloro-N-[3-(7,8-dimethoxy-2,2a,4-5-tetrahydro-1H-3-aza-acenaphthylen-3-yl)-propyl]-4,5-difluoro-benzene sulfonamide hydrochloride]
